Data taken from ChEMBL document CHEMBL4507329, “Data for DCP probe BTZO-1” (2021).

Columns and labels:
[1] = target: Serine/threonine-protein kinase NIM1 (Homo sapiens) (UniProt Q8IY84); settings: Compound concentration 1000.0 nM
[2] = target: G protein-coupled receptor kinase 3 (Homo sapiens) (UniProt P35626); settings: Compound concentration 1000.0 nM
[3] = target: Mitogen-activated protein kinase kinase kinase 19 (Homo sapiens) (UniProt Q56UN5); settings: Compound concentration 1000.0 nM
[4] = target: Phosphatidylinositol 4-phosphate 5-kinase type-1 alpha (Homo sapiens) (UniProt Q99755); settings: Compound concentration 1000.0 nM
[5] = target: Cyclin-dependent kinase 4 (Homo sapiens) (UniProt P11802); settings: Compound concentration 1000.0 nM
[6] = target: Cyclin-dependent kinase 19 (Homo sapiens) (UniProt Q9BWU1); settings: Compound concentration 1000.0 nM
[7] = test system: Tyrosine-protein kinase ABL1 (Homo sapiens), P00519 [T315I]; settings: Compound concentration 1000.0 nM
[8] = target: MAP/microtubule affinity-regulating kinase 3 (Homo sapiens) (UniProt P27448); settings: Compound concentration 1000.0 nM
[9] = target: Phosphatidylinositol 4-phosphate 3-kinase C2 domain-containing subunit beta (Homo sapiens) (UniProt O00750); settings: Compound concentration 1000.0 nM
[10] = target: Tyrosine-protein kinase Blk (Homo sapiens) (UniProt P51451); settings: Compound concentration 1000.0 nM
[11] = target: Activated CDC42 kinase 1 (Homo sapiens) (UniProt Q07912); settings: Compound concentration 1000.0 nM
[12] = target: Ribosomal protein S6 kinase alpha-5 (Homo sapiens) (UniProt O75582); settings: Compound concentration 1000.0 nM
[13] = target: Wee1-like protein kinase (Homo sapiens) (UniProt P30291); settings: Compound concentration 1000.0 nM
[14] = target: Serine/threonine-protein kinase 32A (Homo sapiens) (UniProt Q8WU08); settings: Compound concentration 1000.0 nM
[15] = target: Serine/threonine-protein kinase Nek9 (Homo sapiens) (UniProt Q8TD19); settings: Compound concentration 1000.0 nM
[16] = target: Mast/stem cell growth factor receptor Kit (Homo sapiens) (UniProt P10721); settings: Compound concentration 1000.0 nM
[17] = target: G protein-coupled receptor kinase 4 (Homo sapiens) (UniProt P32298); settings: Compound concentration 1000.0 nM
[18] = target: Death-associated protein kinase 3 (Homo sapiens, UniProt O43293); settings: Compound concentration 1000.0 nM
[19] = target: D(1B) dopamine receptor (Homo sapiens) (UniProt P21918); settings: Compound concentration 10.0 uM
[20] = target: D(1A) dopamine receptor (Homo sapiens) (UniProt P21728); settings: Compound concentration 10.0 uM
[21] = target: Serine/threonine-protein kinase tousled-like 2 (Homo sapiens) (UniProt Q86UE8); settings: Compound concentration 1000.0 nM
[22] = target: Phosphatidylinositol 3-kinase C2 domain-containing subunit gamma (Homo sapiens) (UniProt O75747); settings: Compound concentration 1000.0 nM
[23] = target: Bone morphogenetic protein receptor type-1B (Homo sapiens) (UniProt O00238); settings: Compound concentration 1000.0 nM
[24] = test system: Epidermal growth factor receptor (Homo sapiens), P00533 [G719C]; settings: Compound concentration 1000.0 nM
[25] = target: Insulin receptor-related protein (Homo sapiens) (UniProt P14616); settings: Compound concentration 1000.0 nM
[26] = target: Vascular endothelial growth factor receptor 2 (Homo sapiens) (UniProt P35968); settings: Compound concentration 1000.0 nM
[27] = target: Serine/threonine-protein kinase WNK3 (Homo sapiens) (UniProt Q9BYP7); settings: Compound concentration 1000.0 nM
[28] = target: Cyclin-dependent kinase 7 (Homo sapiens) (UniProt P50613); settings: Compound concentration 1000.0 nM
[29] = test system: Proto-oncogene tyrosine-protein kinase receptor Ret (Homo sapiens), P07949 [V804L]; settings: Compound concentration 1000.0 nM
[30] = target: Calcium/calmodulin-dependent protein kinase type II subunit gamma (Homo sapiens) (UniProt Q13555); settings: Compound concentration 1000.0 nM
[31] = target: Phosphatidylinositol 4-phosphate 5-kinase type-1 gamma (Homo sapiens) (UniProt O60331); settings: Compound concentration 1000.0 nM
[32] = test system: Leucine-rich repeat serine/threonine-protein kinase 2 (Homo sapiens), Q5S007 [G2019S]; settings: Compound concentration 1000.0 nM
[33] = target: Serine/threonine-protein kinase mTOR (Homo sapiens) (UniProt P42345); settings: Compound concentration 1000.0 nM
[34] = target: Megakaryocyte-associated tyrosine-protein kinase (Homo sapiens) (UniProt P42679); settings: Compound concentration 1000.0 nM
[35] = target: Serine/threonine-protein kinase PAK 2 (Homo sapiens) (UniProt Q13177); settings: Compound concentration 1000.0 nM
[36] = target: Ephrin type-A receptor 3 (Homo sapiens) (UniProt P29320); settings: Compound concentration 1000.0 nM
[37] = target: Transient receptor potential cation channel subfamily M member 6 (Homo sapiens) (UniProt Q9BX84); settings: Compound concentration 1000.0 nM
[38] = target: Citron Rho-interacting kinase (Homo sapiens) (UniProt O14578); settings: Compound concentration 1000.0 nM
[39] = target: Serine/threonine-protein kinase D1 (Homo sapiens) (UniProt Q15139); settings: Compound concentration 1000.0 nM
[40] = target: Tyrosine-protein kinase receptor TYRO3 (Homo sapiens) (UniProt Q06418); settings: Compound concentration 1000.0 nM
[41] = target: Mitogen-activated protein kinase kinase kinase 11 (Homo sapiens) (UniProt Q16584); settings: Compound concentration 1000.0 nM
[42] = target: Phosphatidylinositol 4,5-bisphosphate 3-kinase catalytic subunit alpha isoform (Homo sapiens) (UniProt P42336); settings: Compound concentration 1000.0 nM
[43] = target: Protein-tyrosine kinase 6 (Homo sapiens) (UniProt Q13882); settings: Compound concentration 1000.0 nM
[44] = target: Homeodomain-interacting protein kinase 1 (Homo sapiens) (UniProt Q86Z02); settings: Compound concentration 1000.0 nM
[45] = target: 5-hydroxytryptamine receptor 1E (Homo sapiens) (UniProt P28566); settings: Compound concentration 10.0 uM

Wee1-like protein kinase (Homo sapiens), sequence (P30291 whole entry, looked up): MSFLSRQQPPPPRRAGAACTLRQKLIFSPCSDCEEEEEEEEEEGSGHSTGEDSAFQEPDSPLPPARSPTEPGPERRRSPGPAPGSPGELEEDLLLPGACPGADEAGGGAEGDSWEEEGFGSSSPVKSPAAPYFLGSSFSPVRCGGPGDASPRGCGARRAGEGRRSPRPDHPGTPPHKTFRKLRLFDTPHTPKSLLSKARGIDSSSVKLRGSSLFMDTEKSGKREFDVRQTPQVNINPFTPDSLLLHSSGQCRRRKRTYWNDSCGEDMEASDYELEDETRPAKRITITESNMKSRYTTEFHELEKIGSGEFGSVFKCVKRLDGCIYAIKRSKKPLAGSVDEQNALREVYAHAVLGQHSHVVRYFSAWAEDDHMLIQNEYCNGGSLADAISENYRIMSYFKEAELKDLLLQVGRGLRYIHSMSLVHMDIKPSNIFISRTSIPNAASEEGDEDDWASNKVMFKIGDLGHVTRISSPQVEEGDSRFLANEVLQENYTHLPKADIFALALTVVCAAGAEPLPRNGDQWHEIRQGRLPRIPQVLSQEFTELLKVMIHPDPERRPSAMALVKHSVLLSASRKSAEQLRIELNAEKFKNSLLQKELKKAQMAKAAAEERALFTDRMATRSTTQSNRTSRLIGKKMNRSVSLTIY
Serine/threonine-protein kinase WNK3 (Homo sapiens), sequence (Q9BYP7 whole entry): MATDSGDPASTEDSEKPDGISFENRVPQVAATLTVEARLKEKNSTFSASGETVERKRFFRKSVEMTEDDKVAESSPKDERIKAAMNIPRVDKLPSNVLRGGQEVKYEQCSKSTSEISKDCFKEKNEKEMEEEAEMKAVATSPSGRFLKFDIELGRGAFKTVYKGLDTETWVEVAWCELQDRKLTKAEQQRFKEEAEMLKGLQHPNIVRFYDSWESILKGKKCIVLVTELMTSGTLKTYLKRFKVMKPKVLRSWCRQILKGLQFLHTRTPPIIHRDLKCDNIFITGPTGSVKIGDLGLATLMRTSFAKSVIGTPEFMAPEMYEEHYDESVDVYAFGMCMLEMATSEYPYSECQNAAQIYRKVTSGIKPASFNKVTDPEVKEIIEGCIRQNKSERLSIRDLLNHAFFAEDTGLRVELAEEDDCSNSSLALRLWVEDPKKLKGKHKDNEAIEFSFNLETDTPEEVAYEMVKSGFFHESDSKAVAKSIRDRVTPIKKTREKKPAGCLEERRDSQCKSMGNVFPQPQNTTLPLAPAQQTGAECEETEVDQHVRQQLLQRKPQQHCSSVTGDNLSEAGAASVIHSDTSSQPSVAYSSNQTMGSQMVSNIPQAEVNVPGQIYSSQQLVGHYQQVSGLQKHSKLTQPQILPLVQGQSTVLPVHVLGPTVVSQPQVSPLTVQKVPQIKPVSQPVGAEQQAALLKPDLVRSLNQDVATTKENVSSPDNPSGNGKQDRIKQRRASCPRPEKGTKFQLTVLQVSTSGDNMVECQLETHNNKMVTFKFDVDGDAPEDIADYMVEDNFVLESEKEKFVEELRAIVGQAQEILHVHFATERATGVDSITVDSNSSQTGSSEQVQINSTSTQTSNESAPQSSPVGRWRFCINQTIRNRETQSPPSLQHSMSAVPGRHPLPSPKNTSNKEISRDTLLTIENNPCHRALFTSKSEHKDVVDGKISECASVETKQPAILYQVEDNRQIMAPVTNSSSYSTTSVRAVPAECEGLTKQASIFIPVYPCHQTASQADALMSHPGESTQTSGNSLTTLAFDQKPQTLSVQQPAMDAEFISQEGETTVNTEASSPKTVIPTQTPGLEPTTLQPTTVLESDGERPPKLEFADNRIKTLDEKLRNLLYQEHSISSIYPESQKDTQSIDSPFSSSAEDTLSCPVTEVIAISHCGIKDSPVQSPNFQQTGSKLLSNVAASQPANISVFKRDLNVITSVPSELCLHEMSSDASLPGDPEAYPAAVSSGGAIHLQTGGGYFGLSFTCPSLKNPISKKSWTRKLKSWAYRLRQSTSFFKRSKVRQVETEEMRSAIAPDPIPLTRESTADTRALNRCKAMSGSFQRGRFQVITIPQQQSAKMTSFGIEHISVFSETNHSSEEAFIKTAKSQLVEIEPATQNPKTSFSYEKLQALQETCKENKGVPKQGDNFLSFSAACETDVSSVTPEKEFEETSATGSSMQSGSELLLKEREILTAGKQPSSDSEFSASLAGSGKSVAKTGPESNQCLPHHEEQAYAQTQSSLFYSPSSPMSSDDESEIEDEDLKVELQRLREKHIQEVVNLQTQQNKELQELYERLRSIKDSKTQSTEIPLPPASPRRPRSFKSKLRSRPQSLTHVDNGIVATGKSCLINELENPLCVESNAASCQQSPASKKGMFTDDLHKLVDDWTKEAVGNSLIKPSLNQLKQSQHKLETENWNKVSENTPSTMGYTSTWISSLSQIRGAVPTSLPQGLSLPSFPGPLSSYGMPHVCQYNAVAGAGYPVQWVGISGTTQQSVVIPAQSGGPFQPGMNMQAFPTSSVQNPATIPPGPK
G protein-coupled receptor kinase 3 (Homo sapiens), sequence (P35626 whole entry): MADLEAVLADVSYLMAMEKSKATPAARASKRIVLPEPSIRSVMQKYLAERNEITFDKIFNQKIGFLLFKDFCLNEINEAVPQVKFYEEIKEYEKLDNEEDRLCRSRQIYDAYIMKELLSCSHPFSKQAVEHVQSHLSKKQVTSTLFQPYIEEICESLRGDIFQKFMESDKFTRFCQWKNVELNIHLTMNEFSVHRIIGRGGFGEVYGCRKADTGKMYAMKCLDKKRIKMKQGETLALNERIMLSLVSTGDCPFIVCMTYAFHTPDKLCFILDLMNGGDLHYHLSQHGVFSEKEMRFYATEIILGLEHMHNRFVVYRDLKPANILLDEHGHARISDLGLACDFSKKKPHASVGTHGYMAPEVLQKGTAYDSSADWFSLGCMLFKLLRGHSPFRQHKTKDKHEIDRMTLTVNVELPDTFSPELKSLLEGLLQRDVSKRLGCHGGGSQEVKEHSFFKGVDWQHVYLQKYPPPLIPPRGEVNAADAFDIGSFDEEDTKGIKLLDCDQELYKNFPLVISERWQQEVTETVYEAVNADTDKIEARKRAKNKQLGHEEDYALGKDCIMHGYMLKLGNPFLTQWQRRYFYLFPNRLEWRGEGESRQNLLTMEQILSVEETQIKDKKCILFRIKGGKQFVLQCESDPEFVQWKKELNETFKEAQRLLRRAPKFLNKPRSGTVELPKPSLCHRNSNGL
MAP/microtubule affinity-regulating kinase 3 (Homo sapiens), sequence (P27448 whole entry, looked up, the tested form may be a part): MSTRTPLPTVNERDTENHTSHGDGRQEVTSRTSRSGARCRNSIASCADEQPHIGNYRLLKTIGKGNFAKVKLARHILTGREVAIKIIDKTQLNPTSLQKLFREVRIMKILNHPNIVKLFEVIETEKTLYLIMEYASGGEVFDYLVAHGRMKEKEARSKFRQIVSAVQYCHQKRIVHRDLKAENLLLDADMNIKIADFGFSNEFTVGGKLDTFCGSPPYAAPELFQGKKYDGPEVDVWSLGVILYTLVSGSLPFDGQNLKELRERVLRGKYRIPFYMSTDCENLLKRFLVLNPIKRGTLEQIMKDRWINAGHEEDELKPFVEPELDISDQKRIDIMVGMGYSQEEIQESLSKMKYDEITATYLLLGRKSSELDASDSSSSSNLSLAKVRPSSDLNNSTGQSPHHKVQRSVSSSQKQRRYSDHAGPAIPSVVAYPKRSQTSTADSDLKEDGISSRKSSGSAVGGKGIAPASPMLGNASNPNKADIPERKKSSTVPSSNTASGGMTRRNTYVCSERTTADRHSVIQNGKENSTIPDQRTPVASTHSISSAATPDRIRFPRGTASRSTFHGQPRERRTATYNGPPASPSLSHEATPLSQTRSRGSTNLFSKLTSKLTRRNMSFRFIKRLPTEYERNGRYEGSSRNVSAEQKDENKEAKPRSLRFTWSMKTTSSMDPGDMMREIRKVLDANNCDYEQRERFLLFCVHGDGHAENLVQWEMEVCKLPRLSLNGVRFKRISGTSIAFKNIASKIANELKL
Serine/threonine-protein kinase D1 (Homo sapiens), sequence (Q15139 whole entry): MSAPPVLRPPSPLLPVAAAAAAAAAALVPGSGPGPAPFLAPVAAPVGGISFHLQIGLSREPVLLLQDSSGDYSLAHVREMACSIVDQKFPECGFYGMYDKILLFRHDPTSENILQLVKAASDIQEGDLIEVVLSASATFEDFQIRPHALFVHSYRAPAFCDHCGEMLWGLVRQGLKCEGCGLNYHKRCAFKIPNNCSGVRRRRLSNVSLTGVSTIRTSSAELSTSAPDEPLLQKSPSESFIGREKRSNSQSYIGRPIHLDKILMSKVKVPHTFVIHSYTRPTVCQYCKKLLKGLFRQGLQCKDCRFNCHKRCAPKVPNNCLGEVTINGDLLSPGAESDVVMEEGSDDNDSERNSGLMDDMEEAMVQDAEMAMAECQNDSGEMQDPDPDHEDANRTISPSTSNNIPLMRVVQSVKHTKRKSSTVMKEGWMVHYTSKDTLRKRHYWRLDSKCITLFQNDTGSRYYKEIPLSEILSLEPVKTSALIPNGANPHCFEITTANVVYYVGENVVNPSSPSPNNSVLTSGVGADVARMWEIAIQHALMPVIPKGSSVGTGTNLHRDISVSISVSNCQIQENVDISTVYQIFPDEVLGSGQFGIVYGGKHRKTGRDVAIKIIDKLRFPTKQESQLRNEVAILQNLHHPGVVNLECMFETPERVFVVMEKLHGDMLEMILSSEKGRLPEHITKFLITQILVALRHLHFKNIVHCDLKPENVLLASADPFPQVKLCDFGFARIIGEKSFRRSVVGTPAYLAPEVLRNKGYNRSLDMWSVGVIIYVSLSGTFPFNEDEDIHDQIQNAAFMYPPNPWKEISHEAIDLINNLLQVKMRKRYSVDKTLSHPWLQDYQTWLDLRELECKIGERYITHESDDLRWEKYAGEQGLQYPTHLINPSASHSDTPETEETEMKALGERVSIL
Cyclin-dependent kinase 4 (Homo sapiens), sequence (P11802 whole entry): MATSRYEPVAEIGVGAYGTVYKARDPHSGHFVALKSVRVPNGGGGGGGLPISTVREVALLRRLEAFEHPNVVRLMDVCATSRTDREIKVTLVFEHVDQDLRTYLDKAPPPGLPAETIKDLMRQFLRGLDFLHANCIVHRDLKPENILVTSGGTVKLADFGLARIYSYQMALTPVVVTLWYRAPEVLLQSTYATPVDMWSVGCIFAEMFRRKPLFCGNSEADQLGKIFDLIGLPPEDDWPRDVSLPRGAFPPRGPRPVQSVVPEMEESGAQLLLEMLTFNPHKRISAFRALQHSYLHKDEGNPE

Compound: O=c1nc(-c2ccccn2)sc2ccccc12 [BTZO-1]
- residual activity [1]: 100%
- residual activity [2]: 51%
- residual activity [3]: 86%
- residual activity [4]: 100%
- residual activity [5]: 100%
- residual activity [6]: 86%
- residual activity [7]: 100%
- residual activity [8]: 89%
- residual activity [9]: 83%
- residual activity [10]: 88%
- residual activity [11]: 100%
- residual activity [12]: 94%
- residual activity [13]: 100%
- residual activity [14]: 100%
- residual activity [15]: 96%
- residual activity [16]: 97%
- residual activity [17]: 100%
- residual activity [18]: 91%
- inhibition [19]: 21.5%
- inhibition [20]: 3.24%
- residual activity [21]: 96%
- residual activity [22]: 100%
- residual activity [23]: 75%
- residual activity [24]: 77%
- residual activity [25]: 86%
- residual activity [26]: 100%
- residual activity [27]: 100%
- residual activity [28]: 69%
- residual activity [29]: 70%
- residual activity [30]: 96%
- residual activity [31]: 84%
- residual activity [32]: 92%
- residual activity [33]: 100%
- residual activity [34]: 100%
- residual activity [35]: 100%
- residual activity [36]: 87%
- residual activity [37]: 77%
- residual activity [38]: 100%
- residual activity [39]: 100%
- residual activity [40]: 80%
- residual activity [41]: 100%
- residual activity [42]: 100%
- residual activity [43]: 100%
- residual activity [44]: 61%
- inhibition [45]: -1.13%

Compound: O=C1NC(c2ccccn2)Sc2ccccc21 (stereo not given) [BTZO-4]
- residual activity [1]: 100%
- residual activity [2]: 42%
- residual activity [3]: 92%
- residual activity [4]: 100%
- residual activity [5]: 91%
- residual activity [6]: 100%
- residual activity [7]: 93%
- residual activity [8]: 95%
- residual activity [9]: 86%
- residual activity [10]: 77%
- residual activity [11]: 100%
- residual activity [12]: 95%
- residual activity [13]: 100%
- residual activity [14]: 78%
- residual activity [15]: 75%
- residual activity [16]: 88%
- residual activity [17]: 100%
- residual activity [18]: 0%
- inhibition [19]: 11.2%
- inhibition [20]: 7.77%
- residual activity [21]: 96%
- residual activity [22]: 100%
- residual activity [23]: 71%
- residual activity [24]: 87%
- residual activity [25]: 75%
- residual activity [26]: 82%
- residual activity [27]: 100%
- residual activity [28]: 77%
- residual activity [29]: 69%
- residual activity [30]: 98%
- residual activity [31]: 77%
- residual activity [32]: 81%
- residual activity [33]: 100%
- residual activity [34]: 100%
- residual activity [35]: 100%
- residual activity [36]: 100%
- residual activity [37]: 64%
- residual activity [38]: 96%
- residual activity [39]: 100%
- residual activity [40]: 76%
- residual activity [41]: 94%
- residual activity [42]: 91%
- residual activity [43]: 100%
- residual activity [44]: 75%
- inhibition [45]: -0.383%
